{"source": "PubChem BioAssay AID200", "about": "(DTP/NCI, 2004)", "system": "B6C3F1 mice, B16 melanoma ip, median survival T/C", "test": "NCI In Vivo Anticancer Drug Screen. Data for tumor model B16 Melanoma (intraperitoneal) in B6C3F1 mice", "settings": "endpoint: median survival time, schedule: Q01DX009 (ip), higher = longer survival", "procedure,_shortened": "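Antitumor effect was judged in mice with transplanted tumors by dividing the treated group's survival measure by that of vehicle controls.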", "key": {"[1]": {"settings": "dose: 1.56 mg/kg/injection, vehicle: saline"}, "[2]": {"settings": "dose: 6.25 mg/kg/injection, vehicle: saline"}, "[3]": {"settings": "dose: 3.12 mg/kg/injection, vehicle: saline with Tween-80"}}, "note": "Values joined by “and” are separate entries in the source; they are usually repeats but may differ in a detail not shown here. Identical values can stand only once. Inconclusive results and toxic doses are left out. Where a SMILES comes first, the peptide text is derived from it. [ ]: non-standard residue; d: D form. The star is where a group is joined. Nle = CCCC[CH](N)C(=O)O; Cbz = O=C(OCc1ccccc1)*; Nva = CCC[CH](N)C(=O)O", "data": [{"smiles": "NC(=O)C#CC(N)=O", "values": [{"measurement": "T/C", "setting": "dose: 0.06 mg/kg/injection, vehicle: Klucel (hydroxypropylcellulose) (HPC)", "result": "101 % of control"}, {"measurement": "T/C", "setting": "dose: 0.12 mg/kg/injection, vehicle: Klucel (hydroxypropylcellulose) (HPC)", "result": "102 % of control"}, {"measurement": "T/C", "setting": "dose: 0.23 mg/kg/injection, vehicle: Klucel (hydroxypropylcellulose) (HPC)", "result": "97 % of control"}, {"measurement": "T/C", "setting": "dose: 0.45 mg/kg/injection, vehicle: Klucel (hydroxypropylcellulose) (HPC)", "result": "100 % of control"}, {"measurement": "T/C", "setting": "dose: 0.9 mg/kg/injection, vehicle: Klucel (hydroxypropylcellulose) (HPC)", "result": "102 % of control"}]}, {"smiles": "COC12C(COC(=O)NCCO)C3=C(C(=O)C(C)=C(N)C3=O)N1CC1NC12", "note": "(stereo not drawn)", "values": [{"measurement": "T/C", "setting": "dose: 3.13 mg/kg/injection, vehicle: Klucel (hydroxypropylcellulose) (HPC)", "result": "110 % of control"}, {"measurement": "T/C", "setting": "dose: 12.5 mg/kg/injection, vehicle: Klucel (hydroxypropylcellulose) (HPC)", "result": "205 % of control"}, {"measurement": "T/C", "setting": "dose: 25.0 mg/kg/injection, vehicle: Klucel (hydroxypropylcellulose) (HPC)", "result": "121 % of control"}]}, {"smiles": "COc1cc2cc(c1Cl)N1CCC(C)(O)C(=O)NC(C)C(=O)OC(CC1=O)C1(C)OC1C(C)C1CC(O)(NC(=O)O1)C(OC)/C=C\\C=C(\\C)C2OC", "note": "(stereo not drawn)", "values": [{"measurement": "T/C", "setting": "dose: 8.0 micrograms/kg/injection, vehicle: distilled water + alcohol", "result": "160 % of control"}, {"measurement": "T/C", "setting": "dose: 16.0 micrograms/kg/injection, vehicle: distilled water + alcohol", "result": "162 % of control"}, {"measurement": "T/C", "setting": "dose: 32.0 micrograms/kg/injection, vehicle: distilled water + alcohol", "result": "178 % of control"}]}, {"smiles": "CCN(CC)CCCNc1nccc2c(C)c3[nH]c4ccncc4c3cc12", "values": [{"measurement": "T/C", "setting": "dose: 0.38 mg/kg/injection, vehicle: other", "result": "176 % of control"}, {"measurement": "T/C", "setting": "dose: 0.75 mg/kg/injection, vehicle: other", "result": "170 % of control"}, {"measurement": "T/C", "setting": "dose: 1.5 mg/kg/injection, vehicle: other", "result": "180 % of control"}, {"measurement": "T/C", "setting": "dose: 3.0 mg/kg/injection, vehicle: other", "result": "202 % of control"}, {"measurement": "T/C", "setting": "dose: 6.0 mg/kg/injection, vehicle: other", "result": "257 % of control"}]}, {"smiles": "COc1ccc(C(=O)C(=O)c2ccc(OC)c(OC)c2)cc1OC", "values": [{"measurement": "T/C", "setting": "[1]", "result": "101 % of control"}, {"measurement": "T/C", "setting": "dose: 3.13 mg/kg/injection, vehicle: saline", "result": "99 % of control"}, {"measurement": "T/C", "setting": "[2]", "result": "97 % of control"}]}, {"smiles": "CC(Br)C(=O)c1ccc2cc(Br)c3ccccc3c2c1", "note": "(stereo not drawn)", "values": [{"measurement": "T/C", "setting": "[3]", "result": "98 % of control"}, {"measurement": "T/C", "setting": "dose: 6.25 mg/kg/injection, vehicle: saline with Tween-80", "result": "100 % of control"}, {"measurement": "T/C", "setting": "dose: 12.5 mg/kg/injection, vehicle: saline with Tween-80", "result": "90 % of control"}]}, {"smiles": "Cc1cc(N(CC(C)Br)CC(C)Br)ccc1N=Nc1ccccc1C(=O)O", "note": "(stereo not drawn)", "values": [{"measurement": "T/C", "setting": "dose: 0.78 mg/kg/injection, vehicle: saline", "result": "105 % of control"}, {"measurement": "T/C", "setting": "dose: 1.56 mg/kg/injection, vehicle: saline with Tween-80", "result": "110 % of control"}, {"measurement": "T/C", "setting": "[1]", "result": "98 % of control"}, {"measurement": "T/C", "setting": "[3]", "result": "164 % of control"}, {"measurement": "T/C", "setting": "dose: 3.12 mg/kg/injection, vehicle: saline", "result": "111 % of control"}, {"measurement": "T/C", "setting": "[2]", "result": "108 % of control"}]}, {"smiles": "CCC1=C[C@H]2CN(CCc3c([nH]c4ccccc34)[C@@](OC(C)=O)(c3cc4c(cc3OC)N(C)[C@H]3[C@@](O)(C(=O)NCCSc5ccccc5)[C@H](O)[C@]5(CC)C=CCN6CC[C@]43[C@@H]65)C2)C1", "values": [{"measurement": "T/C", "setting": "dose: 0.25 mg/kg/injection, vehicle: water", "result": "107 % of control"}, {"measurement": "T/C", "setting": "dose: 1.0 mg/kg/injection, vehicle: water", "result": "118 % of control"}, {"measurement": "T/C", "setting": "dose: 2.0 mg/kg/injection, vehicle: water", "result": "124 % of control"}]}, {"smiles": "CCCCC(NC(=O)C(CCC)NC(=O)OCc1ccccc1)C(=O)O", "note": "(stereo not drawn) (Cbz-[Nva]-[Nle]-OH; configuration not given here)", "values": [{"measurement": "T/C", "setting": "dose: 100.0 mg/kg/injection, vehicle: Klucel (hydroxypropylcellulose) (HPC)", "result": "104 % of control"}, {"measurement": "T/C", "setting": "dose: 200.0 mg/kg/injection, vehicle: Klucel (hydroxypropylcellulose) (HPC)", "result": "101 % of control"}]}, {"smiles": "c1ccc([Te][Te]c2ccccc2)cc1", "values": [{"measurement": "T/C", "setting": "dose: 3.0 mg/kg/injection, vehicle: saline with Tween-80", "result": "92 % of control and 94 % of control"}, {"measurement": "T/C", "setting": "dose: 6.0 mg/kg/injection, vehicle: saline with Tween-80", "result": "98 % of control and 100 % of control and 106 % of control"}, {"measurement": "T/C", "setting": "dose: 12.0 mg/kg/injection, vehicle: saline with Tween-80", "result": "112 % of control and 122 % of control and 98 % of control"}, {"measurement": "T/C", "setting": "dose: 24.0 mg/kg/injection, vehicle: saline with Tween-80", "result": "114 % of control and 121 % of control and 102 % of control"}, {"measurement": "T/C", "setting": "dose: 48.0 mg/kg/injection, vehicle: saline with Tween-80", "result": "113 % of control"}]}]}
